Consider two compounds from ChEMBL document CHEMBL4043149, “Beneficial effects of a medicinal herb, Cirsium japonicum var. maackii, extract and its major component, cirsimaritin on breast cancer metastasis in MDA-MB-231 breast cancer cells” (Bioorg Med Chem Lett, 2017).

The term inhibition denotes how much of the control response was suppressed.

Each structure is given as a SMILES string. The source made the active and inactive calls. The rule behind the calls is not given here.

Series [1] can be described thus: Cytotoxicity against HUVEC assessed as cell viability at 100 uM after 24 hrs by MTT assay. As to conditions: human, HUVEC cells; read-out: Activity. It counts as cell-based.
In series [2] the test system is HUVEC. The experiment in a line: Antiangiogenic activity in HUVEC assessed as inhibition of vascular endothelial tube formation at 3.125 uM after 24 hrs by matrigel assay relative to control. It counts as functional. As to conditions: Homo sapiens.
Series [3] has as its system HUVEC. The experiment in a line: Antiangiogenic activity in HUVEC assessed as inhibition of vascular endothelial tube formation at 6.25 uM after 24 hrs by matrigel assay relative to control. Type of series: functional. Conditions: Homo sapiens.
Series [4] concerns MDA-MB-231. Put plainly: Downregulation of VEGF protein expression in human MDA-MB-231 cells at 6.25 uM after 24 hrs by Western blot analysis relative to control. It counts as functional.
Series [5] relates to MDA-MB-231. The experiment in a line: Antimetastatic activity against human MDA-MB-231 cells assessed as reduction in cell viability at 200 uM after 24 hrs by MTT assay relative to control. It counts as functional. On the technique in general: Tetrazolium assays rely on reduction of a dye to a coloured formazan, in cell work by metabolically active cells.
The test system of series [6] is MDA-MB-231. The experiment in a line: Antimetastatic activity against human MDA-MB-231 cells assessed as cell viability at 3.125 uM after 24 hrs by MTT assay relative to control. Type of series: functional. Conditions: MDA-MB-231, 24 h, read-out: Activity.
For series [7], the system named is MDA-MB-231. Put plainly: Downregulation of VEGF protein expression in human MDA-MB-231 cells at 3.125 uM after 24 hrs by Western blot analysis relative to control. It counts as functional. (In general: Immunoblotting shows a protein as a band on a membrane.)
For series [8], the system named is MDA-MB-231. The experiment in a line: Antimetastatic activity against human MDA-MB-231 cells assessed as reduction in cell viability at 50 uM after 24 hrs by MTT assay relative to control. Type of series: functional.
Series [9] is filed under the species Homo sapiens. Put plainly: Inhibition of ERK phosphorylation in human MDA-MB-231 cells at […] after 24 hrs by Western blot analysis relative to control. It counts as cell-based.
The target in series [10] is RAC-alpha serine/threonine-protein kinase (Homo sapiens) (UniProt P31749). Put plainly: Inhibition of Akt phosphorylation in human MDA-MB-231 cells at 3.125 uM after 24 hrs by Western blot analysis relative to control. Type of series: cell-based.
Sequence of RAC-alpha serine/threonine-protein kinase (Homo sapiens) (P31749 whole entry): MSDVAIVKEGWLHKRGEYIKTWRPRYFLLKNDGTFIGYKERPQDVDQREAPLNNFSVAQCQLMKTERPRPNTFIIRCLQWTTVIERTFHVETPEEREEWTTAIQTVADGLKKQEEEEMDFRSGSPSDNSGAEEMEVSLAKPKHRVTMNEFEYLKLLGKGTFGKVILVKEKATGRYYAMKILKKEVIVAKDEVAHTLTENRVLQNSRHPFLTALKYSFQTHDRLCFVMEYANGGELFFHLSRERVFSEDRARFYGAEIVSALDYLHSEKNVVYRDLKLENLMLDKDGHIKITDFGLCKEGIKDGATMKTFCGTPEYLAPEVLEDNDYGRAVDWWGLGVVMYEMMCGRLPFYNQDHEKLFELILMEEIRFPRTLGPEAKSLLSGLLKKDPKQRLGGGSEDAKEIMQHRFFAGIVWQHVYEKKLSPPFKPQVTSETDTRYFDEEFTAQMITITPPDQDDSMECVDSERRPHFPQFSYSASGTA
For series [11], the species on record is Homo sapiens. The experiment in a line: Inhibition of ERK phosphorylation in human MDA-MB-231 cells at 3.125 uM after 24 hrs by Western blot analysis relative to control. Type of series: cell-based.
Series [12] relates to MCF7. Put plainly: Antimetastatic activity against human MCF7 cells assessed as cell viability at 3.125 uM after 24 hrs by MTT assay relative to control. Type of series: functional. As to conditions: MCF7, 24 h, read-out: Activity.
In series [13] the test system is MDA-MB-231. Put plainly: Antimetastatic activity against human MDA-MB-231 cells assessed as reduction in cell viability at 6.25 uM after 24 hrs by MTT assay relative to control. Type of series: functional.
In series [14] the test system is HUVEC. The experiment in a line: Cytotoxicity against HUVEC assessed as reduction in cell viability at 100 uM after 24 hrs by MTT assay. Type of series: cell-based. Conditions: human.
Series [15] concerns MDA-MB-231. Put plainly: Decrease in MMP9 mRNA expression in human MDA-MB-231 cells at 3.125 to 6.25 uM after 24 hrs by RT-PCR method. It counts as functional, cell-based.
The subject of series [16] is HUVEC. The experiment in a line: Cytotoxicity against HUVEC assessed as reduction in cell viability at 12.50 to 100 uM after 24 hrs by MTT assay. It counts as cell-based. As to conditions: human.
The nature of series [17]: Cytotoxicity against HUVEC assessed as cell viability at 3.12 uM after 24 hrs by MTT assay. It counts as cell-based. Conditions: human, HUVEC cells; read-out: Activity.
Series [18] relates to MCF7. Put plainly: Antimetastatic activity against human MCF7 cells assessed as cell viability at 100 uM after 24 hrs by MTT assay relative to control. It counts as functional. As to conditions: MCF7, 24 h, read-out: Activity.
Series [19] is filed under the species Homo sapiens. The experiment in a line: Inhibition of ERK phosphorylation in human MDA-MB-231 cells at 6.25 uM after 24 hrs by Western blot analysis relative to control. Type of series: cell-based.
The subject of series [20] is HUVEC. The experiment in a line: Cytotoxicity against HUVEC assessed as reduction in cell viability after 24 hrs by MTT assay. Type of series: cell-based. As to conditions: human.
For series [21], the system named is MDA-MB-231. The experiment in a line: Antimetastatic activity against human MDA-MB-231 cells assessed as reduction in cell viability at <6.25 uM after 24 hrs by MTT assay. Type of series: functional, cell-based.
For series [22], the target named is RAC-alpha serine/threonine-protein kinase (Homo sapiens) (UniProt P31749). Put plainly: Inhibition of Akt phosphorylation in human MDA-MB-231 cells at 6.25 uM after 24 hrs by Western blot analysis relative to control. Type of series: cell-based.
Series [23] has as its system MDA-MB-231. The experiment in a line: Antimetastatic activity against human MDA-MB-231 cells assessed as reduction in cell viability at 100 uM after 24 hrs by MTT assay relative to control. It counts as functional.
Series [24] concerns HUVEC. The experiment in a line: Cytotoxicity against HUVEC assessed as reduction in cell viability up to 6.25 uM after 24 hrs by MTT assay. It counts as cell-based. Conditions: human.

`COc1cc2oc(-c3ccc(O)cc3)cc(=O)c2c(O)c1OC` [CIRSIMARITIN]: in series [1], the viability at 24 h, 100 µM was 38%. Besides, the inhibition at 3.125 µM with HUVEC [2] is 18.1%. In addition, the inhibition at 6.25 µM in the series with HUVEC [3] worked out at 32.2%. Besides, the “fold change (FC)” value in the series on MDA-MB-231 [4] was determined as 0.78; in the series with MDA-MB-231 [7], 0.78; in series [10] it was 0.68; in the series filed under Homo sapiens [11], 0.8; in the series listed under Homo sapiens [19] it was 0.57; in series [22], 0.66. Moreover, the Activity is recorded as 52.73% in the series on MDA-MB-231 [5]; 78.74% in the series on MDA-MB-231 [8]; 83.19% in the series on MDA-MB-231 [13]; 62.04% in the series with HUVEC [14]; “Toxic” in the series on HUVEC [16]; “Dose-dependent effect” with HUVEC [20]. Besides, the Activity in the series with MDA-MB-231 [23] was 38.56%; with HUVEC [24], “Non-Toxic”. Moreover, the viability at 3.125 µM in the series on MDA-MB-231 [6] is 88.2%; in the series with MCF7 [12], 81.8%. In the series filed under Homo sapiens [9], this compound displayed an inhibition of 43%. Moreover, in the series with MDA-MB-231 [15], the outcome was Active. In addition, the viability at 24 h, 3.12 µM in series [17] turned out to be 89.9%. The viability at 100 µM in the series with MCF7 [18] worked out at 53.4%. For the same compound, the result in the series with MDA-MB-231 [21] was inactive.
For `COc1cccc2c1C(=O)c1c(O)c3c(c(O)c1C2=O)C[C@@](O)(C(=O)CO)C[C@@H]3O[C@H]1C[C@H](N)[C@H](O)[C@H](C)O1` [DOXORUBICIN], the viability at 24 h, 100 µM in series [1] is 11.7%. The viability at 24 h, 3.12 µM in series [17] came out at 14.2%.
